ChEMBL document CHEMBL1201862, “PubChem BioAssay data set” (2004)
Calls of active or inactive are those of the source.

Assays:
[1] = biological target: T1, Replicative DNA helicase DnaB (Mycobacterium tuberculosis, UniProt P9WMR3); assay: DnaB intein splicing inhibitors, dose response, biochemical, cell-free fluorescence (AID 449749); type: functional
T1 sequence (P9WMR3 whole entry): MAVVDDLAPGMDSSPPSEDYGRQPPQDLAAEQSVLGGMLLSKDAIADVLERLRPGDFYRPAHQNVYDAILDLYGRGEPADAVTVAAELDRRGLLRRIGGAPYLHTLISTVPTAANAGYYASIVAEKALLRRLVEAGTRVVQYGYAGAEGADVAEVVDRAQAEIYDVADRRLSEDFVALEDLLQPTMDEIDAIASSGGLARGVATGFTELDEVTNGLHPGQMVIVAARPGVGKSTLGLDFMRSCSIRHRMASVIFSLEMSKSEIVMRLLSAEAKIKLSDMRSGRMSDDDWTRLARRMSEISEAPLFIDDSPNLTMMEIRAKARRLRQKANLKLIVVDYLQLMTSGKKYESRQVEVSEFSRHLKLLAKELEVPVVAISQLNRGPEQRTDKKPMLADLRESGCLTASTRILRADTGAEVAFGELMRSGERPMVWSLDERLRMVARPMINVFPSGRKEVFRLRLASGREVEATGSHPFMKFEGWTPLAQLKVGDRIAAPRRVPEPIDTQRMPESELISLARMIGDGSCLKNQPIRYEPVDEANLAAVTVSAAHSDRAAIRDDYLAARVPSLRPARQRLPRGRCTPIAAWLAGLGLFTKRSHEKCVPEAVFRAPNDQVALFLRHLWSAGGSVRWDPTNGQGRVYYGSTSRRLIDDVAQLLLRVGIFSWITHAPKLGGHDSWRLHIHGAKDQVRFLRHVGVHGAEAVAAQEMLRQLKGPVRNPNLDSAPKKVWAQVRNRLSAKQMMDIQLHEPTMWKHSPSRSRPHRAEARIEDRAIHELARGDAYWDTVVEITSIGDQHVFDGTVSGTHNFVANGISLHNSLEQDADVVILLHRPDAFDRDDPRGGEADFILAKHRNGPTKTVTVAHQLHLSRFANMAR

Protein RecA = biological target: T2, Protein RecA (Mycobacterium tuberculosis, UniProt P9WHJ3); assay: Fluorescence Cell-Free Homogeneous Dose Retest to Identify Inhibitors of RecA-Intein Splicing Activity. [Related pubchem assays (depositor defined):AID2097, AID2223, AID489010, AID492950]; type: functional
T2 sequence (P9WHJ3 whole entry): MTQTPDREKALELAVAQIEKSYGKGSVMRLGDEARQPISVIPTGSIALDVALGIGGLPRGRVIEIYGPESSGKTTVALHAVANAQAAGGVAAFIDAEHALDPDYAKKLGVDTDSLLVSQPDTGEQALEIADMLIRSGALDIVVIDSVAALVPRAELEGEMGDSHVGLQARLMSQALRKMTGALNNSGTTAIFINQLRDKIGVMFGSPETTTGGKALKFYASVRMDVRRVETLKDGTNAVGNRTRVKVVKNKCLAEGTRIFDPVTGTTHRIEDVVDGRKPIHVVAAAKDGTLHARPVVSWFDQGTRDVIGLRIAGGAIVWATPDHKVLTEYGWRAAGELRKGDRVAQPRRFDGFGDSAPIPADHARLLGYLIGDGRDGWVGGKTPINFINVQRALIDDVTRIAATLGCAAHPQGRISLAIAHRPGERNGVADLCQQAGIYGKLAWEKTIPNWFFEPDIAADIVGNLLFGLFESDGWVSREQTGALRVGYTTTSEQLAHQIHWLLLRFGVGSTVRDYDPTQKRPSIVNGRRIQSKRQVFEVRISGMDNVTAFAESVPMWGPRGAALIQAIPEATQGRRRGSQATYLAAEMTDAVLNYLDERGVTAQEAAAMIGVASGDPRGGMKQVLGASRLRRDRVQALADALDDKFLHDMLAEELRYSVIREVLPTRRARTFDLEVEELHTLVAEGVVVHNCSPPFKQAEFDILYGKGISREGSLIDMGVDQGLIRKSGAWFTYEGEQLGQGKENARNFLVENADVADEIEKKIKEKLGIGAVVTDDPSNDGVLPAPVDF

[2] = biological target: T3, Heat shock factor protein 1 (Mus musculus, UniProt P38532); assay: enhancement of HSF1-driven luciferase signal – cell-based, NIH3T3, luminescence, dose retest, confirmation (AID 435004); type: functional;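 further: stress induced by proteasome inhibitor MG132 added 30 min after compound; luciferase reporter driven by HSF1 response element in NIH3T3 cells; actives raise luminescence as potentiators of the MG132 stress response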
T3 sequence (P38532 whole entry): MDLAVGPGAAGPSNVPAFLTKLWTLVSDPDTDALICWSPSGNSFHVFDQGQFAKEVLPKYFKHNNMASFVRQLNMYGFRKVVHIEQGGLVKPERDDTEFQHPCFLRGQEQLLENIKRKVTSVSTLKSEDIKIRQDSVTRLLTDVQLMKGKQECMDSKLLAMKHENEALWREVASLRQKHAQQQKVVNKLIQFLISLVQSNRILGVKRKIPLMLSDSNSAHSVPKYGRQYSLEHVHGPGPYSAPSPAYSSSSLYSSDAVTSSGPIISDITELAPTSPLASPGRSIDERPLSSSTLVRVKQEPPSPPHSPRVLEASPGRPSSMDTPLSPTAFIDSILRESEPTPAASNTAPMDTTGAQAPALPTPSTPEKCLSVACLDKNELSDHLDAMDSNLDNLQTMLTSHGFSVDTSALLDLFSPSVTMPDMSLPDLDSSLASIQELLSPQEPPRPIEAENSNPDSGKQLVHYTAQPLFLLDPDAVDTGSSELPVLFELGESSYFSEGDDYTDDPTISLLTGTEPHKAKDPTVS

Cytochrome P450 3A4 = Cytochrome P450 3A4 (Homo sapiens, UniProt P08684);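 further: CYP3A4 tested as one member of a cytochrome P450 panel screen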
Cytochrome P450 3A4, sequence (P08684 whole entry): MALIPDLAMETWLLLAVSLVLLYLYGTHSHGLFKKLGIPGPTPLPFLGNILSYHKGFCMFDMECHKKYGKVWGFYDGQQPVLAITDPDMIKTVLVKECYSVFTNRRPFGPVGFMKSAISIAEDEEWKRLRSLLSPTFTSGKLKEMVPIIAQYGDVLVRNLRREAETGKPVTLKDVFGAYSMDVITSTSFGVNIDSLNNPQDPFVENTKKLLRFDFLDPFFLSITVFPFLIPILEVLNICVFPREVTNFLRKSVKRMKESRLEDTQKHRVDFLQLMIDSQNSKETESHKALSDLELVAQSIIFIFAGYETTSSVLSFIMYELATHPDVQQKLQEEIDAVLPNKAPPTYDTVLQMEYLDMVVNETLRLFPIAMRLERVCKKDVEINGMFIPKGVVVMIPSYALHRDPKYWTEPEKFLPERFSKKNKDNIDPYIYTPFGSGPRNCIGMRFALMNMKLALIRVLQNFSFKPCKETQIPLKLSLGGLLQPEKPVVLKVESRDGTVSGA

Cytochrome P450 2C19 = Cytochrome P450 2C19 (Homo sapiens, UniProt P33261); assay: Cytochrome panel assay with activity outcomes. Panel member name: p450-cyp2c19 Compounds with AC50 equal or less than 10 uM are considered active; type: functional; settings: read-out: AC50
Cytochrome P450 2C19, sequence (P33261 whole entry): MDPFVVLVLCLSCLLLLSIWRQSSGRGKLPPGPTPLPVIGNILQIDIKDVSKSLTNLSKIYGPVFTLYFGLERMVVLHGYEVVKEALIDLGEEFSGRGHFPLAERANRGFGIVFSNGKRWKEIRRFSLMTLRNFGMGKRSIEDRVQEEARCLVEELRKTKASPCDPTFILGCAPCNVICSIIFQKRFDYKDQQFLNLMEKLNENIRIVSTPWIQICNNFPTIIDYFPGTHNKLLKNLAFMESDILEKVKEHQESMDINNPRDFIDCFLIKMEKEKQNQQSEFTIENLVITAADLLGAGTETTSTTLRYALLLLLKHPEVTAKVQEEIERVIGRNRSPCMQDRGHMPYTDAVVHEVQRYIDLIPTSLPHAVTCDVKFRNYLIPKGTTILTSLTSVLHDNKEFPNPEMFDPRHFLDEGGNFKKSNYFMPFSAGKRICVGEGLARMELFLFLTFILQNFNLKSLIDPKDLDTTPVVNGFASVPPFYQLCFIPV

Cytochrome P450 2D6 = Cytochrome P450 2D6 (Homo sapiens, UniProt P10635);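 further: CYP2D6 member of a cytochrome P450 panel assay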
Cytochrome P450 2D6, sequence (P10635 whole entry): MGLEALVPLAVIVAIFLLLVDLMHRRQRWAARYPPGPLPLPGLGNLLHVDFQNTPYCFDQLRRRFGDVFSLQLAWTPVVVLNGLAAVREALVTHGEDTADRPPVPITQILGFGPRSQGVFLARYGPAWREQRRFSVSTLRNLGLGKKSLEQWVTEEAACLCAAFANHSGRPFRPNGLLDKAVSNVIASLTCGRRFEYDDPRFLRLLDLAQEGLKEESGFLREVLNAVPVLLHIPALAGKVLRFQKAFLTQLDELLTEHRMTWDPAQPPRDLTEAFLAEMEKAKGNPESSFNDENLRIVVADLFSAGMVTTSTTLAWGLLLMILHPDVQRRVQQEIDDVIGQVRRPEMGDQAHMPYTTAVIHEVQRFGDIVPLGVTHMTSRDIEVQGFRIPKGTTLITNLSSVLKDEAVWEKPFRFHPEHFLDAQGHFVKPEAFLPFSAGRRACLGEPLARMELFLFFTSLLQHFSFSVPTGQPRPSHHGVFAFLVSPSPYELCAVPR

INS1 = assay: INS-1E survival protection against cytokine death – cell-based, luminescence, retest, dose response (AID 449756); type: functional; settings: Rattus norvegicus;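 further: cell death triggered by IL-1 beta plus TNF-alpha plus IFN-gamma mixture; protective hits raise ATP signal compared with cytokine alone wells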
[3] = NIH-3T3 fibroblast cytotoxicity, dose response, cytotoxicity control, cell-based, fluorescence, Alamar Blue, secondary assay (AID 2327); type: functional;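 further: NIH-3T3 mouse fibroblasts cultured with fluconazole at 8 µg/mL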
[4] = fluconazole-exposed Candida albicans growth modulators – fluorescence, retest, confirmation (AID 2467); type: functional, cell-based
[5] = Trypanosoma cruzi growth suppression in host cells – NIH3T3 host cells, beta-gal luminescence, confirmation (AID 2044); type: functional, cell-based;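 further: intracellular parasites grown in NIH/3T3 mouse fibroblasts as host cells; luminescent beta-galactosidase reporter signal from transgenic T. cruzi replicating inside host cells; inhibitors lower the luminescence signal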
[6] = NIH3T3 cell viability loss – ATP luminescence, mouse fibroblasts, counter-screen, dose response (AID 2010); type: functional, cell-based;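 further: cells exposed to compound for about 90 hours before reading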

Compound: COc1ccc(Nc2oc(COc3ccccc3F)nc2C#N)cc1
- AC50 [1]: 19.9 µM (active)
- EC50 (Protein RecA): 2.44 µM (active)

Compound: Cc1cccc(-c2cc3c(nn2)-c2ccccc2C3=O)c1
- EC50 [2]: 0.897 µM (active)

Compound: N#Cc1cccc(-c2nc(NCc3ccccc3)c3ccccc3n2)c1
- AC50 (Cytochrome P450 3A4): 20 µM (inconclusive)

Compound: CCOC(=O)C1C(=O)NC(C)C1c1ccccc1 (configuration not stated)
- AC50 (Cytochrome P450 2C19): 31.6 µM (inconclusive)
- AC50 (Cytochrome P450 2D6): 0.0501 µM (inconclusive)

Compound: CC(=O)N1N=C(c2ccccc2)CC1c1ccccc1[N+](=O)[O-] (configuration not stated)
- EC50 [2]: > 260 µM (inactive)

Compound: Cc1ccc[n+](CC(=O)Nc2ccc([N+](=O)[O-])cc2Cl)c1
- EC50 [2]: > 260 µM (inactive)

Compound: CC(C)(C)c1ccc(NNC(=O)C2CCC2)cc1
- AC50 (INS1): 7.4 µM (active)

Compound: CCSc1nnc(NC(=O)c2cccnc2Cl)s1
- EC50 [2]: > 260 µM (inactive)

Compound: CC(C)(C)c1cc(C(=O)CCN2CCOCC2)cc(C(C)(C)C)c1O
- AC50 [1]: 129 µM (active)
- EC50 (Protein RecA): 16.8 µM (active)

Compound: CCN(c1ccccc1)S(=O)(=O)c1cc(NC(=O)Nc2ccccc2C#N)ccc1Cl
- EC50 [2]: > 260 µM (inactive)

Compound: COc1ccc(COC(=O)N/N=C2/C[C@@H](O)[C@@H](O)[C@@H]3[C@@H]4C(=O)N([C@@H](C)c5ccccc5)C(=O)[C@H]4CC[C@@H]23)cc1
- AC50 (Cytochrome P450 3A4): 3.98 µM (inconclusive)

Compound: CCOc1ccc(NC(=O)N(C2CCCCC2)C(C)c2ccncc2)cc1 (configuration not stated)
- AC50 (Cytochrome P450 2D6): 17.8 µM (inconclusive)

Compound: Cc1c(C(=O)NN)nn(-c2ccc(Cl)cc2)c(=O)c1C#N
- AC50 [1]: 79.8 µM (active)
- EC50 (Protein RecA): 8.06 µM (active)

Compound: Cc1cc(C)n(-c2ccc(C(=O)Nc3cc(C(F)(F)F)ccc3N3CCOCC3)cc2)n1
- AC50 (Cytochrome P450 2C19): 10 µM (inconclusive)
- AC50 (Cytochrome P450 3A4): 14.1 µM (inconclusive)

Compound: Cc1ccc(C(C)(O)CS(=O)(=O)Cc2ccccc2Cl)cc1 (configuration not stated)
- EC50 [2]: > 260 µM (inactive)

Compound: COc1ccc(NC(=O)c2cc(C)n(Cc3cccs3)c2C)cc1
- EC50 [2]: 106 µM (inconclusive)

Compound: CCOC(=O)CNC(c1ccccc1)c1cc(Br)ccc1NC(=O)CCN1CCOCC1 (configuration not stated)
- EC50 [3]: 39.4 µM (active)
- EC50 [4]: 3.44 µM (active)

Compound: O=C(Oc1cccc2cccnc12)c1cccc(N2C(=O)C3C4CCC(C4)C3C2=O)c1 (configuration not stated)
- AC50 (INS1): 16.2 µM (active)

Compound: COc1ccc(/C=C2\N=C(SC)N(C)C2=O)cc1
- AC50 (Cytochrome P450 3A4): 28.2 µM (inconclusive)

Compound: Cc1ccc(OCc2cc(C(=O)N(C)Cc3cc(C4CC4)[nH]n3)no2)cc1C
- AC50 (INS1): > 260 µM (inactive)

Compound: C=CCn1c(SCC)nc2sc3c(c2c1=O)CCc1ccccc1-3
- AC50 (Cytochrome P450 2D6): 11.2 µM (inconclusive)

Compound: Cc1ccc(NC(=O)NCCCc2ccccc2)cc1
- AC50 (Cytochrome P450 3A4): 7.94 µM (inconclusive)

Compound: NC(=O)CC12CC3CC(C1)CC(CC(N)=O)(C3)C2
- EC50 [3]: > 160 µM (inactive)
- EC50 [4]: > 38 µM (not active)

Compound: O=C(c1cc(Cl)c(=O)n(Cc2ccc(Cl)cc2)c1)N1CCOCC1
- AC50 (Cytochrome P450 3A4): 28.2 µM (inconclusive)

Compound: Cc1ccc(O)c(-c2cc3ccccc3[nH]2)c1
- EC50 [3]: > 160 µM (inactive)
- EC50 [4]: > 38 µM (not active)

Compound: Cc1cc(O)c2n(Cc3ccccc3Cl)nc[n+]2n1
- EC50 [2]: > 260 µM (inactive)

Compound: CC(=O)NC(c1ccco1)c1cc(F)c2cccnc2c1O (configuration not stated)
- AC50 (INS1): 2.71 µM (active)

Compound: COc1cc(C(c2c(C)n[nH]c2O)c2c(C)n[nH]c2O)ccc1OC(C)C
- AC50 [1]: 0.318 µM (active)
- EC50 (Protein RecA): 0.223 µM (active)

Compound: O=C(COc1ccccc1)Nc1cc(C(F)(F)F)ccc1N1CCCC1
- AC50 (Cytochrome P450 2D6): 17.8 µM (inconclusive)

Compound: CCC(C)c1ccc(Nc2ncccc2C#N)cc1 (configuration not stated)
- AC50 (Cytochrome P450 2D6): 28.2 µM (inconclusive)

Compound: CS/C(=C\[N+](=O)[O-])Nc1ccc(Cl)cc1
- EC50 [3]: > 150 µM (inconclusive)
- EC50 [4]: > 38 µM (not active)
- AC50 [1]: 23.2 µM (active)
- EC50 (Protein RecA): 12.7 µM (active)

Compound: COc1ccc(N2C(=O)C(Cl)=C(N3CCN(Cc4ccccc4)CC3)C2=O)cc1
- AC50 [1]: 8.12 µM (active)
- EC50 (Protein RecA): 1.67 µM (active)

Compound: COCC(=O)N1CCC[C@@]2(CCN(Cc3nccs3)C2)C1
- AC50 (Cytochrome P450 3A4): 20 µM (inconclusive)

Compound: O=c1oc(-c2ccccc2Cl)nc2ccsc12
- AC50 [1]: 14 µM (active)
- EC50 (Protein RecA): 23.3 µM (active)

Compound: Cc1nc2c(n1C1CCCCC1)C(=O)c1ccccc1C2=O
- AC50 (Cytochrome P450 2D6): 22.4 µM (inconclusive)

Compound: c1ccc2c(CC3NCCN3)cccc2c1
- AC50 (Cytochrome P450 2D6): 3.98 µM (inconclusive)

Compound: Oc1ccc2ccccc2c1/C=N\Cc1c(O)ccc2ccccc12
- AC50 (Cytochrome P450 2D6): 3.98 µM (inconclusive)

Compound: CCc1nc(SCC(=O)c2ccc(Cl)s2)c2oc3ccccc3c2n1
- EC50 [2]: 43.5 µM (active)

Compound: Cc1nn(C(CC(=O)O)C(=O)O)c(C)c1Br (configuration not stated)
- EC50 [2]: > 260 µM (inactive)

Compound: Cc1n[nH]c(O)c1C(c1ccc(Br)cc1)c1c(C)n[nH]c1O
- AC50 [1]: 0.588 µM (active)
- EC50 (Protein RecA): 0.338 µM (active)

Compound: CCCCCCC1CC(C)(/C(C)=N/NC(N)=O)OC1=O (configuration not stated)
- AC50 (Cytochrome P450 3A4): 17.8 µM (inconclusive)

Compound: CCn1c(C)c(/C=N/Nc2nc3ccccc3s2)c2ccccc21
- EC50 [5]: 2.5 µM (active)
- EC50 [6]: > 60 µM (not active)
- AC50 (Cytochrome P450 2D6): 14.1 µM (inconclusive)

Compound: C/C(CC(=O)Nc1ccc(F)cc1)=N\NC(=O)COc1ccccc1
- AC50 [1]: 10.3 µM (active)
- EC50 (Protein RecA): 3.72 µM (active)

Compound: COc1cc(/C=N/NC(=O)c2cccs2)ccc1OCc1ccccc1
- AC50 (Cytochrome P450 3A4): 15.8 µM (inconclusive)
